For data set [1], the system named is Mus musculus. In words: Antiseizure activity in PTZ-induced male CD-1 mouse clonic seizure model assessed as increase in latency time by measuring fold change at 12 mg/kg, ip pretreated with compound followed by PTZ-induction. The format is functional.
Data set [2] in a line: Toxicity in male CD-1 mouse assessed as stimulation of appetite at 12 to 13 mg/kg, ip. Format: organism-based. To be noted: in vivo, dose 12-13 mg/kg.
Data set [3] relates to Mus musculus. Description: Antiseizure activity in PTZ-induced male CD-1 mouse clonic seizure model assessed as improvement in locomotor activity by measuring fold change at 12 mg/kg, ip pretreated with compound followed by PTZ-induction. The format is functional.
The test system of data set [4] is Mus musculus. Description: Antiseizure activity in PTZ-induced male CD-1 mouse clonic seizure model assessed as improvement in locomotor activity by measuring total events at 12 mg/kg, ip pretreated with compound followed by PTZ-induction by open field test. Format: functional.
Data set [5] in a line: Toxicity in male CD-1 mouse assessed as sedation at 12 to 13 mg/kg, ip. The format is organism-based. As to conditions: in vivo, dose 12-13 mg/kg.
Data set [6] relates to Mus musculus. Description: Antiseizure activity in PTZ-induced male CD-1 mouse clonic seizure model assessed as increase in latency time at 12 mg/kg, ip pretreated with compound followed by PTZ-induction. The format is functional.
Data set [7] is described as follows: Toxicity in male CD-1 mouse assessed as piloerection at 12 to 13 mg/kg, ip. Format: organism-based. To be noted: in vivo, dose 12-13 mg/kg.
The subject of data set [8] is Mus musculus. Description: Antiseizure activity in PTZ-induced male CD-1 mouse clonic seizure model assessed as improvement in locomotor activity by measuring fold change at 15 mg/kg, ip pretreated with compound followed by PTZ-induction by open field test. Format: functional.
The subject of data set [9] is Mus musculus. Description: Antiseizure activity in PTZ-induced male CD-1 mouse clonic seizure model assessed as increase in latency time at 15 mg/kg, ip pretreated with compound followed by PTZ-induction. The format is functional.
Data set [10] relates to Mus musculus. Description: Antiseizure activity in PTZ-induced male CD-1 mouse clonic seizure model assessed as improvement in locomotor activity by measuring total events at 15 mg/kg, ip pretreated with compound followed by PTZ-induction by open field test. Format: functional.
For data set [11], the system named is Mus musculus. In words: Antiseizure activity in PTZ-induced male CD-1 mouse clonic seizure model assessed as increase in latency time by measuring fold change at 15 mg/kg, ip pretreated with compound followed by PTZ-induction. Format: functional.
The test system of data set [12] is Mus musculus. In words: Antiseizure activity in PTZ-induced male CD-1 mouse clonic seizure model assessed as improvement in locomotor activity by measuring total events at 13 mg/kg, ip pretreated with compound followed by PTZ-induction by open field test. Format: functional.
The test system of data set [13] is Mus musculus. In words: Antiseizure activity in PTZ-induced male CD-1 mouse clonic seizure model assessed as improvement in locomotor activity by measuring fold change at 13 mg/kg, ip pretreated with compound followed by PTZ-induction. Format: functional.
The test system of data set [14] is Mus musculus. In words: Antiseizure activity in PTZ-induced male CD-1 mouse clonic seizure model assessed as increase in latency time at 13 mg/kg, ip pretreated with compound followed by PTZ-induction. Format: functional.
The subject of data set [15] is Mus musculus. Description: Antiseizure activity in PTZ-induced male CD-1 mouse clonic seizure model assessed as increase in latency time by measuring fold change at 13 mg/kg, ip pretreated with compound followed by PTZ-induction. The format is functional.

Each structure is given as a SMILES string.

Regarding `CC1=C(C)C[C@]2(C(=O)c3ccccc3)C(=O)Oc3ccccc3[C@@H]2C1`, the “fold change (FC)” value with Mus musculus [1] is recorded as around 4; in the data set with Mus musculus [3] it was 2.4. Besides, the Activity result is “Toxic” in [2], 2747 in the data set with Mus musculus [4], “Toxic” in data set [5] and “Toxic” in data set [7]. The Time with Mus musculus [6] turned out to be 264 s.

Consider `Cc1c(C(=O)c2cccc3ccccc23)c2cccc3c2n1C(CN1CCOCC1)CO3` (stereo not given), for which the “fold change (FC)” value is reported as 3 in the data set with Mus musculus [8] and around 4 in the data set with Mus musculus [11]. Further, the Time with Mus musculus [9] was determined as 279 s. Besides, the Activity in the data set on Mus musculus [10] is 3079.

With `CC1=C(C)C[C@]2(C(=O)c3ccc(C)cc3)C(=O)Oc3ccccc3[C@@H]2C1`, the “fold change (FC)” value is around 4 in the data set with Mus musculus [1] and 2.4 in the data set on Mus musculus [3]. Besides, the Activity entry in data set [2] is given as “Toxic”; with Mus musculus [4], 2876; in data set [5], “Toxic”; in data set [7], “Toxic”. Further, the Time in the data set with Mus musculus [6] is listed as 269 s.

On to `CC1=C(C)C[C@]2(C(=O)c3ccc(Cl)cc3)C(=O)Oc3ccccc3[C@@H]2C1`, for which the Activity was 2790 with Mus musculus [12], “Toxic” in data set [2], “Toxic” in data set [5] and “Toxic” in data set [7]. In addition, the results for the “fold change (FC)” value in the data set with Mus musculus [13] and in the data set on Mus musculus [15] were 2.4 and around 4, respectively. The Time in the data set with Mus musculus [14] is recorded as 266 s.

(Values after ChEMBL document CHEMBL6109035, “Anticonvulsant effects of new coumarin-2,3-dimethylbutadiene Diels-Alder cycloadducts in the pentylenetetrazole-induced clonic seizures in mice” (Bioorg Med Chem Lett, 2025).)
